Assay results as given in patent publication EP2812315B1, “PYRROLIC DERIVATIVES, PROCESSES FOR PREPARING THE SAME AND THEIR USES AS A DRUG” (Universite Joseph Fourier, priority 2012, dated 2013).
≈ marks a conversion by molar mass, not a printed value.

Tests used:
Experiment in all cases: Other MIC determination, microdilution method (CLSI M07-A9) with modifications
Format in all cases: cell-based
[1] = tested on: Staphylococcus arlettae (CHUG-Sarl1); details: clinical strain
Protocol: (§1) The microdilution method recommended by the Clinical and Laboratory Standard Institute [M07-A9, Vol.32, N°2] was used with the following modifications.
(§2) Bacterial inocula were prepared in Mueller Hinton broth (MH2, BioMérieux, Marcy L'Etoile, France). They were dispensed in 96 well microtiter plates (10^6 CFU/ml of final inoculum, 192 µL per well).
(§3) To avoid cross-contaminations in microtiter plates, one row was left blank between each strain tested. Microplates were incubated for 18h at 37 °C in ambient air. Then MICs were read visually and, in case of visual reading difficulties, confirmed using a spectrophotometer at a wavelength of 630 nm (BioTek® EL808 Absorbance Microplate Reader). MICs corresponded to the minimum pyrrolic compound concentrations that allowed complete visual growth inhibition of bacteria. Drug-free cultures served as growth controls.
(§4) We used four Staphylococcus aureus strains. Two reference strains were provided by the French reference center for Staphylococcus spp. (Lyon, France), including one methicillin-susceptible (MSSA 476) and one methicillin-resistant (MRSA 252) S. aureus strains. The two remaining S. aureus strains were purchased from the CRBIP (Centre de Ressources Biologiques de l'Institut Pasteur): a vancomycin-intermediate strain (ATCC 106414) and a S. aureus strain (SA-1199B) resistant to fluoroquinolones due to overexpression of the NorA multidrug efflux pump. Coagulase-negative Staphylococcus strains included three reference strains purchased from CRBIP: a methicillin-susceptible S. epidermidis strain (ATCC 12228), a methicillin-resistant S. epidermidis strain (ATCC 49461), and a methicillin-susceptible S. sciuri strain (ATCC 29061). We also used 37 clinical strains belonging to the following coagulase-negative Staphylococcus species: S. arlettae (two strains), S. capitis (nine strains), S. epidermidis (one strain), S. haemolyticus (six strains), S. hominis (eight strains), S. lugdunensis (one strain), S. massiliensis (one strain), S. pettenkoferi (two strains), S. saprophyticus (two strains), S. simulans (one strain), and S. warneri (four strains) . Identification of the clinical strains was first obtained using VITEK® 2 System (Biomérieux) and confirmed by amplification and sequencing of the tuf gene (Reference: Bergeron, M., O. Dauwalder, M. Gouy, A.-M. Freydiere, M. Bes, H. Meugnier, Y. Benito, J. Etienne, G. Lina, F. Vandenesch, and S. Boisset. Species identification of staphylococci by amplification and sequencing of the tuf gene compared to the gap gene and by matrix-assisted laser desorption ionization time-of-flight mass spectrometry, Eur. J. Clin. Microbial. Infect. Dis. 2011, 30, 343-354).
(§5) The activity of the pyrrolic compounds 3c and 3i was further tested against 32 clinical strains belonging to 11 coagulase-negative Staphylococcus species.

[2] = tested on: Staphylococcus arlettae (CHUG-Sarl2, meti-R)
Protocol: as §1, §2, §3, §4, §5

[3] = tested on: Staphylococcus capitis (CHUG-Scapi10); details: clinical strain
Protocol: as §1, §2, §3, §4, §5

[4] = tested on: Staphylococcus capitis (CHUG-Scapi2); details: clinical strain
Protocol: as §1, §2, §3, §4, §5

[5] = tested on: Staphylococcus capitis (CHUG-Scapi3); details: clinical strain
Protocol: as §1, §2, §3, §4, §5

[6] = tested on: Staphylococcus capitis (CHUG-Scapi4); details: clinical strain
Protocol: as §1, §2, §3, §4, §5

[7] = tested on: Staphylococcus capitis (CHUG-Scapi5); details: clinical strain
Protocol: as §1, §2, §3, §4, §5

[8] = tested on: Staphylococcus capitis (CHUG-Scapi6); details: clinical strain
Protocol: as §1, §2, §3, §4, §5

[9] = tested on: Staphylococcus capitis (CHUG-Scapi7); details: clinical strain
Protocol: as §1, §2, §3, §4, §5

[10] = tested on: Staphylococcus capitis (CHUG-Scapi9); details: clinical strain
Protocol: as §1, §2, §3, §4, §5

[11] = tested on: Staphylococcus epidermidis (CHUG-Sepi1); details: clinical strain
Protocol: as §1, §2, §3, §4, §5

[12] = tested on: Staphylococcus haemolyticus (CHUG-Shae2)
Protocol: as §1, §2, §3, §4, §5

[13] = tested on: Staphylococcus haemolyticus (CHUG-Shae3)
Protocol: as §1, §2, §3, §4, §5

[14] = tested on: Staphylococcus haemolyticus (CHUG-Shae4)
Protocol: as §1, §2, §3, §4, §5

[15] = tested on: Staphylococcus haemolyticus (CHUG-Shae6)
Protocol: as §1, §2, §3, §4, §5

[16] = tested on: Staphylococcus haemolyticus (CHUG-Shae7)
Protocol: as §1, §2, §3, §4, §5

[17] = tested on: Staphylococcus hominis (CHUG-Shom2); details: clinical strain
Protocol: as §1, §2, §3, §4, §5

[18] = tested on: Staphylococcus hominis (CHUG-Shom3); details: clinical strain
Protocol: as §1, §2, §3, §4, §5

[19] = tested on: Staphylococcus hominis (CHUG-Shom4); details: clinical strain
Protocol: as §1, §2, §3, §4, §5

[20] = tested on: Staphylococcus hominis (CHUG-Shom5); details: clinical strain
Protocol: as §1, §2, §3, §4, §5

[21] = tested on: Staphylococcus hominis (CHUG-Shom6); details: clinical strain
Protocol: as §1, §2, §3, §4, §5

[22] = tested on: Staphylococcus hominis (CHUG-Shom7); details: clinical strain
Protocol: as §1, §2, §3, §4, §5

[23] = tested on: Staphylococcus hominis (CHUG-Shom8); details: clinical strain
Protocol: as §1, §2, §3, §4, §5

[24] = tested on: Staphylococcus lugdunensis (CHUG-Slug1); details: clinical strain
Protocol: as §1, §2, §3, §4, §5

[25] = tested on: Staphylococcus massiliensis (CHUG-Smas1); details: clinical strain
Protocol: as §1, §2, §3, §4, §5

[26] = tested on: Staphylococcus pettenkoferi (CHUG-Spet2); details: clinical strain
Protocol: as §1, §2, §3, §4, §5

[27] = tested on: Staphylococcus saprophyticus (CHUG-Ssap1); details: clinical strain
Protocol: as §1, §2, §3, §4, §5

[28] = tested on: Staphylococcus saprophyticus (CHUG-Ssap2); details: clinical strain
Protocol: as §1, §2, §3, §4, §5

[29] = tested on: Staphylococcus simulans (CHUG-Ssim1); details: clinical strain
Protocol: as §1, §2, §3, §4, §5

[30] = tested on: Staphylococcus warneri (CHUG-Swar2); details: clinical strain
Protocol: as §1, §2, §3, §4, §5

[31] = tested on: Staphylococcus warneri (CHUG-Swar3); details: clinical strain
Protocol: as §1, §2, §3, §4, §5

[32] = tested on: Staphylococcus warneri (CHUG-Swar4); details: clinical strain
Protocol: as §1, §2, §3, §4, §5

CC(=O)c1c(C)[nH]c(C(c2ccc(Cl)cc2)c2[nH]c(C)c(C(C)=O)c2C)c1C [3c] was tested. Which MIC [1] did it give?
The MIC was greater than 32 µg/mL.

And the MIC [2]?
Its MIC is greater than 32 µg/mL.

What about the MIC [3] of the same compound?
The MIC was 8 µg/mL (≈ 20.2 µM).

What about the MIC [4] of the same compound?
The MIC was 16 µg/mL (≈ 40.3 µM).

And the MIC [5]?
Its MIC is 8 µg/mL (≈ 20.2 µM).

And the MIC [6]?
The MIC was 4 µg/mL (≈ 10.1 µM).

And the MIC [7]?
The MIC was 8 µg/mL (≈ 20.2 µM).

What about the MIC [8] of the same compound?
Its MIC is 8 µg/mL (≈ 20.2 µM).

And the MIC [9]?
The MIC was 8 µg/mL (≈ 20.2 µM).

What about the MIC [10] of the same compound?
The MIC was 8 µg/mL (≈ 20.2 µM).

And the MIC [11]?
Its MIC is 8 µg/mL (≈ 20.2 µM).

And the MIC [12]?
The MIC was greater than 32 µg/mL.

What about the MIC [13] of the same compound?
Its MIC is 16 µg/mL (≈ 40.3 µM).

What about the MIC [14] of the same compound?
Its MIC is 16 µg/mL (≈ 40.3 µM).

What about the MIC [15] of the same compound?
Its MIC is 16 µg/mL (≈ 40.3 µM).

What about the MIC [16] of the same compound?
The MIC was 16 µg/mL (≈ 40.3 µM).

What about the MIC [17] of the same compound?
Its MIC is greater than 32 µg/mL.

What about the MIC [18] of the same compound?
Its MIC is greater than 32 µg/mL.

And the MIC [19]?
The MIC was greater than 32 µg/mL.

What about the MIC [20] of the same compound?
Its MIC is 8 µg/mL (≈ 20.2 µM).

What about the MIC [21] of the same compound?
The MIC was greater than 32 µg/mL.

What about the MIC [22] of the same compound?
The MIC was greater than 32 µg/mL.

What about the MIC [23] of the same compound?
Its MIC is greater than 32 µg/mL.

And the MIC [24]?
Its MIC is greater than 32 µg/mL.

What about the MIC [25] of the same compound?
Its MIC is greater than 32 µg/mL.

What about the MIC [26] of the same compound?
Its MIC is greater than 32 µg/mL.

What about the MIC [27] of the same compound?
The MIC was greater than 32 µg/mL.

And the MIC [28]?
Its MIC is greater than 32 µg/mL.

What about the MIC [29] of the same compound?
The MIC was greater than 32 µg/mL.

What about the MIC [30] of the same compound?
Its MIC is 8 µg/mL (≈ 20.2 µM).

What about the MIC [31] of the same compound?
The MIC was 8 µg/mL (≈ 20.2 µM).

What about the MIC [32] of the same compound?
Its MIC is 16 µg/mL (≈ 40.3 µM).

With CC(=O)c1c(C)[nH]c(C(c2[nH]c(C)c(C(C)=O)c2C)c2csc3ccccc23)c1C [3i] as the compound, how does the MIC [1] read?
Its MIC is greater than 16 µg/mL.

What about the MIC [2] of the same compound?
Its MIC is 16 µg/mL (≈ 38.2 µM).

What about the MIC [3] of the same compound?
Its MIC is 2 µg/mL (≈ 4.78 µM).

What about the MIC [4] of the same compound?
Its MIC is 2 µg/mL (≈ 4.78 µM).

What about the MIC [5] of the same compound?
Its MIC is 1 µg/mL (≈ 2.39 µM).

And the MIC [6]?
Its MIC is 1 µg/mL (≈ 2.39 µM).

And the MIC [7]?
Its MIC is 2 µg/mL (≈ 4.78 µM).

And the MIC [8]?
Its MIC is 1 µg/mL (≈ 2.39 µM).

What about the MIC [9] of the same compound?
Its MIC is 1 µg/mL (≈ 2.39 µM).

And the MIC [10]?
Its MIC is 2 µg/mL (≈ 4.78 µM).

And the MIC [11]?
Its MIC is greater than 32 µg/mL.

What about the MIC [12] of the same compound?
The MIC was 8 µg/mL (≈ 19.1 µM).

And the MIC [13]?
Its MIC is 4 µg/mL (≈ 9.56 µM).

And the MIC [14]?
The MIC was 4 µg/mL (≈ 9.56 µM).

And the MIC [15]?
The MIC was 4 µg/mL (≈ 9.56 µM).

What about the MIC [16] of the same compound?
The MIC was 4 µg/mL (≈ 9.56 µM).

What about the MIC [17] of the same compound?
The MIC was greater than 16 µg/mL.

And the MIC [18]?
The MIC was greater than 32 µg/mL.

What about the MIC [19] of the same compound?
Its MIC is 16 µg/mL (≈ 38.2 µM).

What about the MIC [20] of the same compound?
Its MIC is 16 µg/mL (≈ 38.2 µM).

What about the MIC [21] of the same compound?
The MIC was greater than 32 µg/mL.

What about the MIC [22] of the same compound?
The MIC was 8 µg/mL (≈ 19.1 µM).

And the MIC [23]?
Its MIC is greater than 32 µg/mL.

And the MIC [24]?
Its MIC is greater than 16 µg/mL.

What about the MIC [25] of the same compound?
The MIC was greater than 16 µg/mL.

What about the MIC [26] of the same compound?
Its MIC is greater than 16 µg/mL.

What about the MIC [27] of the same compound?
Its MIC is 8 µg/mL (≈ 19.1 µM).

And the MIC [28]?
The MIC was 8 µg/mL (≈ 19.1 µM).

And the MIC [29]?
Its MIC is greater than 32 µg/mL.

What about the MIC [30] of the same compound?
The MIC was 1 µg/mL (≈ 2.39 µM).

What about the MIC [31] of the same compound?
Its MIC is 1 µg/mL (≈ 2.39 µM).

And the MIC [32]?
The MIC was 4 µg/mL (≈ 9.56 µM).
